The METLIN SMRT retention time set (Domingo-Almenara et al. 2019)

Assay: gradient 5% acetonitrile 3 min, to 50% in 2 min, to 85% in 15 min, held 3 min, 100 µL/min
Conditions: column: Zorbax Extend-C18 2.1 x 50 mm; eluents: water / acetonitrile, 0.1% formic acid
Method in brief: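 Retention times of pure standards were taken from adduct peaks that were selected by computer and manually inspected. Over 3 months, mixtures of ~100 molecules were run by HPLC–quadrupole time-of-flight mass spectrometry in positive and negative ionization mode. The Zorbax Extend-C18 column (2.1 × 50 mm, 1.8 μm) ran at 100 μL/min in water and acetonitrile, each containing 0.1% formic acid, with 40 μL dead volume and 900 μL dwell volume.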

Row | SMILES | RP-LC retention time [s]
1 | CCc1noc(NC(C)=O)c1-c1ccc(C)c(S(=O)(=O)Nc2ccc(C)c(Cl)c2)c1 | 914
2 | CCOc1c(C)cc(S(=O)(=O)NCC(C)(O)COC)cc1C (stereo not drawn) | 752
3 | COc1ccc(CCNc2nc(-c3ccccc3)cs2)cc1OC | 830
4 | COc1ccc(-c2nnc(-c3ccc(Cl)c(S(=O)(=O)N4CCC(C)CC4)c3)o2)cc1 | 1230
5 | CCOc1ccc(-c2c(C)nn3c(C)c(C(=O)NCCCN4CCCC4=O)cnc23)cc1OCC | 744
6 | Cc1ccccc1-n1ncc2c(C)nn(CC(=O)Nc3cccc(C(F)(F)F)c3)c(=O)c21 | 941
7 | CC(=O)c1cccc(NC2=NS(=O)(=O)C(c3cccc(Cl)c3)=C2C)c1 | 902
8 | Cc1cc(C)nc(N2CCN(c3cccc(Cl)c3)CC2)n1 | 1060
9 | CCn1cc(-c2nc(C(=O)N3CCN(c4ccc(OC)cc4)CC3)cs2)c2cccnc21 | 887
10 | CCOC(=O)c1cn(Cc2ccccc2C)c2nc(C)ccc2c1=O | 909
11 | CCn1cc(-c2nc(C)c(C(=O)Nc3cc(OC)ccc3OC)s2)c2cccnc21 | 1130
12 | CSc1ccc(Cl)c(C(=O)NCCc2cn(C)c3ncccc23)c1 | 724
13 | Cc1ccc(-c2cn3c(CC(=O)NCc4ccc(F)cc4)csc3n2)cc1C | 843
14 | Fc1cc(F)cc(-c2nnc(Cc3nc(-c4cccnc4)no3)o2)c1 | 805
15 | Cc1ccc(C(C)C)cc1NC(=O)Nc1ccc([N+](=O)[O-])cc1 | 1160
16 | COCCOc1ccc(N2CCN(CCn3ncc4c3nc(N)n3nc(-c5ccco5)nc43)CC2)cc1 | 665
17 | CCCCn1c(=O)c2ccccc2n(Cc2nc(-c3cccc(C(F)(F)F)c3)no2)c1=O | 1240
18 | COc1cc2c(cc1OC)C(C(=O)NCCCN1CCN(C)CC1)C(c1cccs1)N(C)C2=O (stereo not drawn) | 572
19 | Cc1c(C(=O)N2CCC(C)CC2)cnn1-c1cc(-c2nc(C(C)(C)C)no2)ccn1 | 1240
20 | CCN1CCN(CC2CCN(S(=O)(=O)c3cc(F)cc(F)c3)CC2)CC1 | 598
21 | Cc1cc(C)n(-c2ccc(C(=O)N3CCN(c4ccc(F)c(Cl)c4)CC3)nn2)n1 | 969
22 | COc1ccc(-c2ncccc2CNS(=O)(=O)c2ccc(Br)cc2)cc1 | 733
23 | Cc1ccc2c(Nc3cccc(C#N)c3)c(C(=O)N3CCCC3)cnc2n1 | 579
24 | O=C(Cc1nnc2cc(-c3nc(C4CC4)no3)ccn12)N1CCCCCC1 | 685
25 | Cc1ccc(F)cc1NS(=O)(=O)c1ccc2c(c1)C(=O)N(C)c1ncccc1O2 | 924
26 | CCn1cc(-c2nc(-c3cc(OC)cc(OC)c3)no2)c(=O)c2cc(F)c(N3CCOCC3)cc21 | 957

Row | SMILES | RP-LC retention time [s]
27 | CCc1ccc(C2=C(C)C(N3CCCN(C(=O)C4CCCC4)CC3)=NS2(=O)=O)cc1 | 946
28 | Cc1cc(-n2nnc(C(=O)N3CCC4(CC3)OCCO4)c2-c2ccncc2)ccc1F | 715
29 | Cc1ccc(Nc2nc3ccncc3n(C(C)C)c2=O)cc1Cl | 771
30 | CCCCC(=O)Nc1cc(C(=O)O)ccc1N(C)CCc1c(C)nn(C)c1C | 596
31 | Cc1ccc(C)c(CN2CCC(F)(c3nc(-c4cnccn4)no3)CC2)c1 | 650
32 | Cn1nnnc1SCC(=O)OCc1cc(-c2ccco2)on1 | 728
33 | CCc1nnc(-c2nnc(NCCOc3ccccc3OC)c3ccccc23)o1 | 790
34 | O=C(Cc1csc(-c2c(Cl)cccc2Cl)n1)NCCc1c[nH]c2ccccc12 | 925
35 | COCCCNC(=O)C1CCN(c2cnc3nc(C)c(C)nc3c2)CC1 | 574
36 | CCS(=O)(=O)c1nc2ccc(NS(=O)(=O)c3ccccc3)cc2s1 | 838
37 | CCOc1ccc(-c2nnc(SCC(=O)Nc3nnc(C)s3)o2)cc1 | 776
38 | CC(=O)N1CCc2cc(-c3ccc(C(=O)NCCN4CCCC4)cc3)ccc21 | 607
39 | CCCN(C)C(=O)c1cc2c(s1)N(CCC)CCCC2 | 1170
40 | Cn1nc(C(=O)N2CCCCC2)c2c1CCN(C(=O)CCC(=O)N1CCCC1)C2 | 622
41 | COc1ccc(NS(=O)(=O)c2c[nH]c3ncccc23)cc1Cl | 729
42 | COCCN1CCn2cc(S(=O)(=O)Nc3ccc(F)cc3Cl)cc2C1=O | 725
43 | COc1ccc(CC(=O)NCc2ccc3c(c2)ncn3C(C)C)cc1 | 600
44 | CC1=C(c2ccc(C)cc2)S(=O)(=O)N=C1N1CCCN(C(=O)c2ccoc2)CC1 | 786
45 | Cc1cc(-c2nnc(-c3ccco3)o2)c(C)n1CC(=O)NCc1cc(F)cc(F)c1 | 852
46 | CCOC(=O)c1c(-c2cccnc2)n(C)c2cc(-c3cccnc3)c(OC)cc12 | 634
47 | Cc1nnc(N2CCCC(C(=O)NCCCc3ccccc3)C2)c2nn(-c3ccccc3)c(C)c12 (stereo not drawn) | 762
48 | CCCN1CCN(C(=O)CCC(=O)N2CCc3c(c(C(=O)N4CCCC4)nn3C)C2)CC1 | 577
49 | O=C(Nc1ccc(F)cc1Cl)c1c(O)c2cccnc2n(-c2cccc(F)c2)c1=O | 1300
50 | CCC(=O)N1CCCN(C2=NS(=O)(=O)C(c3ccc(C)c(C)c3)=C2C)CC1 | 766
51 | CCc1nccn1Cc1nc(-c2ccc(F)c(Cl)c2)no1 | 669
52 | O=S(=O)(NCc1ccccc1Cl)c1ccc2c(c1)-c1oncc1CO2 | 907

Other lines, results leading:

Row | RP-LC retention time [s] | SMILES
53 | 655 | CC1(C(=O)Nc2ccccc2)Oc2cccnc2NC1=O (stereo not drawn)
54 | 877 | Cc1ccc(CNC(=O)CSCc2nc3cccnc3n2C2CCCCC2)o1
55 | 691 | CN(C)CCNC(=O)C1CCN(c2nc3ccc(-c4cccc(F)c4)nc3s2)CC1
56 | 1210 | O=C(Nc1ccccc1)c1c(O)c2cccnc2n(-c2ccc(F)cc2)c1=O
57 | 897 | CCOc1ccccc1NC(=O)C1CCN(S(=O)(=O)c2ccc3c(c2)NC(=O)C(C)O3)CC1 (stereo not drawn)
58 | 697 | COc1ccc2c(c1)c(CN1CCC(C(=O)NCc3ccccc3C)CC1)cn2C
59 | 663 | CCOC(=O)N1CCN(C(=O)c2nn(-c3ccccc3C)c(=O)cc2OC)CC1
60 | 651 | CN(C)c1cc(C(=O)Nc2ccccc2)c2ccccc2n1
61 | 629 | CN(C)CCNC(=O)C1CCN(c2nccnc2Sc2ccccc2)CC1
62 | 720 | CN(CC1CCOCC1)C(=O)Nc1ccccc1F
63 | 772 | CCN(Cc1ccccc1)Cc1nc(-c2ccc(N3CCOCC3)nc2)no1
64 | 898 | COC(=O)c1ccc(NC(=O)N2CCCC2c2cccc(F)c2)cc1 (stereo not drawn)
65 | 854 | O=C(NC1CCCCC1)c1nnc(-c2ccc(S(=O)(=O)N3CCOCC3)cc2)o1
66 | 920 | CCCCCNC(=O)C1CCN(S(C)(=O)=O)c2cc(Cl)ccc2O1 (stereo not drawn)
67 | 672 | Cn1cc(-c2ccc(F)cc2)cc1C(=O)NCCN1CCCCC1
68 | 984 | CCOC(=O)c1c(S(=O)(=O)N2CCC(C(=O)Nc3ccc(C)c(F)c3)CC2)c(C)n(CC)c1C
69 | 767 | CCSc1nnc(-c2nn(C)c3c2CN(C(=O)CCc2ccccc2)CC3)n1C
70 | 906 | Cc1cc(C2CCCN2C(=O)Nc2ccc(C)c(Cl)c2)no1 (stereo not drawn)

Row | RP-LC retention time [s] | SMILES
71 | 941 | CC(NC(=O)c1ccco1)c1nc(-c2ccc(N3CCCC3)cc2)no1 (stereo not drawn)
72 | 692 | Cc1nn(-c2ccc(N3CCOCC3)nn2)c(C)c1CCC(=O)NCCCc1ccco1
73 | 626 | Cc1ccc(CNC(=O)C2CCN(c3cn[nH]c(=O)c3)C2)o1 (stereo not drawn)
74 | 805 | CCNC(=O)c1cc(-c2ccccc2)n(C)c1C
75 | 583 | Cc1cc(C)c2c(N3CCCC3)nc(C(=O)Nc3ccc4c(c3)OCCO4)nc2n1
76 | 664 | Cc1c(Cl)ccc2c(=O)c3c([nH]c12)CCN(CC(=O)Nc1cc(F)cc(F)c1)C3
77 | 685 | Cc1ccc(Nc2nc(C(=O)NC3CCS(=O)(=O)C3)nc3ccccc23)cc1 (stereo not drawn)
78 | 862 | COC(=O)c1c(-c2ccccc2)csc1NC(=O)C1CCN(C(C)=O)CC1
79 | 577 | CN(C)CCCNC(=O)Cn1c(=O)n(-c2ccc(F)cc2)c2ncccc21
80 | 737 | Cc1c(S(=O)(=O)CCNC(=O)NCc2ccc(F)cc2)c2ccccc2n1C
81 | 635 | O=C(Cn1cc(-c2ccc(F)cc2)oc1=O)NCc1ccc(N2CCCCC2)cc1
82 | 847 | Cc1nc2c(SCC(=O)Nc3ccc4c(c3)OCO4)nnc(-c3ccccc3)c2s1
83 | 929 | COc1cc(CNC(=O)C2CCCN(c3nccnc3Oc3ccccc3)C2)cc(OC)c1 (stereo not drawn)
84 | 1070 | CSc1ccc(-c2noc(Cn3c(=O)n(CC4CCCO4)c(=O)c4ccccc43)n2)cc1 (stereo not drawn)
85 | 937 | CCc1ccc(CNC(=O)C2CCCN(c3ccc(=O)n(-c4cccc(F)c4)n3)C2)cc1 (stereo not drawn)
86 | 1180 | CCOc1cccc(C2c3[nH]c4ccccc4c3CCN2C(=O)Cc2cccs2)c1 (stereo not drawn)
87 | 692 | Cc1ccnc(N2CCCC(C(=O)NCc3ccc4c(c3)OCO4)C2)n1 (stereo not drawn)
88 | 650 | CN1CCn2ccnc2C12CCN(C(=O)Nc1ccc(Cl)cc1C(F)(F)F)CC2
